Laboratory results taken from patent US20030199540A1, “Fluoroalkyoxybenzylamino derivatives of nitrogen containing heterocycles” (priority 1991, published 2003).

Structure (SMILES) | melting point
CC(C)(C)c1ccc(OC(F)(F)F)c(CN[C@H]2CCCN[C@H]2c2ccccc2)c1.Cl | 262 to 264 °C
CC(C)c1ccc(OCC(F)(F)F)c(CN[C@H]2CCCN[C@H]2c2ccccc2)c1.Cl | > 280 °C
CC(C)Oc1ccc(OC(F)(F)F)cc1CN[C@H]1CCCN[C@H]1c1ccccc1.Cl | 245 to 246 °C (dec.)
CCOc1ccc(OC(F)(F)F)cc1CN[C@H]1CCCN[C@H]1c1ccccc1.Cl | > 275 °C (dec.)
CC(=O)Nc1ccc(OCC(F)(F)F)c(CN[C@H]2CCCN[C@H]2c2ccccc2)c1.Cl | > 270 °C
Cl.FC(F)(F)Oc1ccccc1CN[C@H]1CCCN[C@H]1c1ccccc1 | 231 to 233 °C

Next, values leading:

melting point | Structure (SMILES)
238 to 239 °C | Cl.FC(F)Oc1ccc(OC(F)F)c(CN[C@H]2CCCN[C@H]2c2ccccc2)c1
263 to 264 °C (dec.) | CC(C)(C)c1ccc(OC(F)F)c(CN[C@H]2CCCN[C@H]2c2ccccc2)c1.Cl
245 to 247 °C (dec.) | CC(C)c1ccc(OC(F)F)c(CN[C@H]2CCCN[C@H]2c2ccccc2)c1.Cl
> 275 °C | Cc1ccc(OC(F)F)c(CN[C@H]2CCCN[C@H]2c2ccccc2)c1.Cl
